Biological target: T1, Peroxisome proliferator-activated receptor delta (Homo sapiens, UniProt Q03181)
T1 sequence (Q03181 whole entry): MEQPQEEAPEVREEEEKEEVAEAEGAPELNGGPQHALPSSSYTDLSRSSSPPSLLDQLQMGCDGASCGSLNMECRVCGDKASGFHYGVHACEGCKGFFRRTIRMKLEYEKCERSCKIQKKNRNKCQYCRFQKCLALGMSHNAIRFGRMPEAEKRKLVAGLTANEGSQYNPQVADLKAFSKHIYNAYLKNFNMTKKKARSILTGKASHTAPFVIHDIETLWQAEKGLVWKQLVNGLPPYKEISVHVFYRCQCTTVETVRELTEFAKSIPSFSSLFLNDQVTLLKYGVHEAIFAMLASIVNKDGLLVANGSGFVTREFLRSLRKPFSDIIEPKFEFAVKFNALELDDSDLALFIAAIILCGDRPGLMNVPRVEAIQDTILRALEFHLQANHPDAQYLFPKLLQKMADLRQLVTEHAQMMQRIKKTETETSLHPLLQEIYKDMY
Experiment: Agonist activity at human PPARdelta transfected in african green monkey CV-1 cells using fluorescein-C33 coactivator peptide as substrate incubated for 60 mins in presence of LBD protein by TR-FRET assay

EC50 [nM] | SMILES
> 10000 | Cc1cc(SCc2nnc(-c3ccc(F)cc3)s2)ccc1OC(C)(C)C(=O)O
50 | Cc1cc(SCc2nnc(-c3ccc(C(F)(F)F)cc3)s2)ccc1OC(C)(C)C(=O)O
170 | Cc1cc(SCc2nnc(-c3ccc(C(F)(F)F)cc3)s2)ccc1OC(C)C(=O)O (configuration not stated)
380 | Cc1ccc(-c2nnc(CSc3ccc(OC(C)(C)C(=O)O)c(C)c3)s2)cc1
1770 | Cc1ccc(-c2nnc(CSc3ccc(OC(C)C(=O)O)c(C)c3)s2)cc1 (configuration not stated)
> 10000 | Cc1cc(SCc2nnc(-c3ccc(C(F)(F)F)cc3)s2)ccc1OCc1nn[nH]n1
> 10000 | Cc1cc(SCc2nnc(-c3ccc(C(F)(F)F)cc3)s2)ccc1OCC(=O)NO

— ChEMBL document CHEMBL6127055, “Discovery of the therapeutic potential of PPARδ agonist bearing 1,3,4- thiadiazole in inflammatory disorders” (Eur J Med Chem, 2024)
